In patent publication US7842808B2, “Anti-migraine spirocycles” (Bristol-Myers Squibb Company, priority 2002, dated 2010):
Read-outs that look alike come from different tables or passages of the source.

Key:
[1] = test system: CGRP-induced increase in laser Doppler facial blood flow; assay: Non-terminal laser Doppler facial blood flow model in non-human primate; assay type: in vivo, common marmoset (Callithrix jacchus); details: for % Inhibition of CGRP-induced increase in laser Doppler facial blood flow: 1 mg/kg, iv, CGRP 10 μg/kg
Description: Overview. […] Non-human primates (e.g., marmosets) are the only animals known to have human-like CGRP receptor pharmacology conferred by the presence of the specific amino acid residue (Trp74) in their RAMP1 sequence which is responsible for the phenotype of the human receptor (Mallee et al. J Biol Chem 2002 277:14294). […] Peptide and small-molecule CGRP-receptor antagonists were used to validate the non-human primate model.
Animals. Adult male and female common marmosets (Callithrix jacchus) purchased from Harlan and weighing 350-550 g served as subjects. Other mammals endogenously expressing RAMP1 having Trp 74 or transgenic mammals with humanized RAMP1 having Trp 74 can also be employed in A compound described herein.
Anesthesia & Surgical Preparation. Animals are anesthetized by isoflurane inhalation in an induction chamber (4-5% rapid induction, maintained with 1-2.5%; Solomon et al., 1999). Anesthesia is maintained by delivering a constant supply of air:oxygen (50:50) and isoflurane via face mask, or by intubation and ventilation (with blood gas monitoring). Body temperature is maintained at 38±0.5° C. by placement on an automated temperature controlled surface with rectal probe. A small area of fur (approx. 1.5 cm square) is removed from one or both sides of the face by application of a depilatory cream and/or shaving. Surgical areas are clipped and prepared with betadine. An i.v. line is placed in any accessible vein for the administration of test compounds and CGRP-receptor agonist and, if needed, withdrawal of blood samples (max 2.5 ml, 10%) for blood gas monitoring and content analysis. A solution of 5% dextrose is administered i.v. in order to maintain blood sugar levels. Anesthesia depth is monitored by measuring blood pressure and heart rate using a non-invasive arm cuff method and a pulse oximeter, respectively. Guanethidine 5-10 mg/kg i.v., supplemented with 5 mg/kg i.v. as needed, may be given to stabilize the peak flux in facial blood flow seen with repeated stimulation-induced changes in blood flow (Escott et al., 1999; incorporated by reference herein). Microvascular blood flow is monitored by attaching a self adhesive laser Doppler flow probe to the facial skin.
Compound Administration Test compounds may be administered i.v. (0.01-5 ml/kg), i.m. (0.01-0.5 ml/kg), s.c. (0.01-5 ml/kg) or p.o. (0.1-10 ml/kg) (Diehl et al., 2001; incorporated by reference herein). CGRP-receptor agonists may be delivered i.v. (0.01-5 ml/kg), i.d. (10-100 μl/site) or s.c. (10-100 μl/site).

[2] = molecular target: T1, human CGRP receptor (SK-N-MC cells) (Homo sapiens, UniProt O60894+Q16602); assay: Schild analysis of CGRP stimulated cAMP production; assay type: cell-based; details: for slope: Schild plot slope
T1 construct: SK-N-MC cells that endogenously express the human CGRP receptor; endogenous in cells; host or cells: SK-N-MC cells
T1 sequence (Q16602 23-461): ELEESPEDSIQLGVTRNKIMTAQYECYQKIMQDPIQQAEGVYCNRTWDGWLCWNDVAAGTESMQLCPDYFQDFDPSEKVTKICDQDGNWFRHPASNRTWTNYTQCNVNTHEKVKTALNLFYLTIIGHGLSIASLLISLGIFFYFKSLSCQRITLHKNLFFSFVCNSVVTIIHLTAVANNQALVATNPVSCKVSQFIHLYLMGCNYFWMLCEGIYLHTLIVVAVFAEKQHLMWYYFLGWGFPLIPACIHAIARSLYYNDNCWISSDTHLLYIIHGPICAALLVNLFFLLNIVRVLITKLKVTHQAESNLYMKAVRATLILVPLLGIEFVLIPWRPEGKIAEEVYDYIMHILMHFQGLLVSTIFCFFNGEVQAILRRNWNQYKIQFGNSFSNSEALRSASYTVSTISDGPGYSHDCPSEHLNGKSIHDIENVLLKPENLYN
T1 sequence (O60894 27-148): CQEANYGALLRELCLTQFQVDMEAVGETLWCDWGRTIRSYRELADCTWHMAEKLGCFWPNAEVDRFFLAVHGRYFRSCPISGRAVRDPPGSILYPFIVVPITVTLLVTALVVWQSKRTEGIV
Experimental: Functional Antagonism. Antagonism of the compounds of invention was determined by measuring the formation of cyclic AMP (adenosine 3′5′-cyclic monophosphate) in SK-N-MC cells that endogenously express the human CGRP receptor. CGRP receptor complex is coupled with Gs protein and CGRP binding to this complex leads to the cyclic AMP production via Gs—dependent activation of an adenylate cyclase (Juaneda C et al., TiPS, 2000; 21:432-438; incorporated by reference herein). Consequently, CGRP receptor antagonists inhibit CGRP-induced cyclic AMP formation in SK-N-MC cells (Doods H et al., Br J Pharmacol, 2000; 129(3):420-423); incorporated by reference herein). For cyclic AMP measurements SK-N-MC cells were incubated with 0.3 nM CGRP alone or in the presence of various concentrations of the compounds of invention for 30 min at room temperature. Compounds of invention were pre-incubated with SK-N-MC cells for 15 min before the addition of CGRP to allow receptor occupancy (Edvinsson et al., Eur J Pharmacol, 2001, 415:39-44; incorporated by reference herein). Cyclic AMP was extracted using the lysis reagent and its concentration was determined by radioimmunoassay using RPA559 cAMP SPA Direct Screening Assay Kit (Amersham Pharmacia Biotech). IC50 values were calculated using Excel fit.
Schild Analysis. Schild analysis can be used to characterize the nature of antagonism of the compounds of invention. The dose response of CGRP stimulated cAMP production was generated either with CGRP alone, or in the presence of various concentrations of compounds of invention. The antagonist dose is plotted as X against the dose ratio (defined as IC50 of agonist with the presence of the compounds divided by the IC50 of the agonist alone) minus 1 as Y. Linear regression was then performed with both X and Y axis log-transformed. […] Kb is the dissociation constant of the antagonist.

[3] = test system: human cerebral vessels (CGRP-induced dilation); assay: Ex Vivo Human Cerebral Artery Assay, reversal of CGRP-induced relaxation; details: reversal of 1 nM hCGRP-induced relaxation, vessels pre-contracted with 10 mM KCl
Description: Rationale and Overview. To provided direct evidence of the ability for novel compounds to reverse CGRP-induced dilation in human cerebral vessels, an ex vivo assay was design. Briefly, isolated vessel rings were mounted in a tissue bath where vessels were pre-contracted with potassium chloride (KCl) and fully dilated with hCGRP, then this relaxation was reversed by the cumulative addition of CGRP-receptor antagonists (complete details follow).
Tissue Samples. Autopsy samples of human arteries were obtained from vendors (ABS Inc. or NDRI). All vessels were transported on ice-cold HEPES buffer (composition in mM: NaCl 130, KCl 4, KH2PO4 1.2, MgSO4 1.2, CaCl2 1.8, Glucose 6, NaHCO3 4, HEPES 10, EDTA 0.025). Upon receipt, the vessels were placed in cold Kreb's buffer (composition in mM: NaCl 118.4, KCl 4.7, KH2PO4 1.2, MgSO4 1.2, CaCl2 1.8, Glucose 10.1, NaHCO3 25) saturated with carbogen (5% CO2 and 95% oxygen).
Isolated Tissue Baths. The vessels were cleaned of connective tissues and cut into cylindrical segments of 4-5 mm in length. The vessels were then mounted in tissue baths between two stainless steel hooks; one of which is fixed and the other of which was connected to a force displacement transducer. The vessel tension was continuously recorded using a data acquisition system (Powerlab, ADInstruments, Mountain View, Calif.) connected to the transducer. The tissue baths containing Krebs buffer and mounted vessels were temperature (37° C.) and pH (7.4) controlled with continuous bubbling of carbogen. The artery segments were allowed to equilibrate for about 30-45 min until a stable resting tone was achieved. Prior to the assay, vessels were primed (conditioned) with 100 mM KCl and subsequently washed. The vessels were pre-contracted with 10 mM KCl and fully dilated with 1 nM hCGRP. Concentration-response curves to CGRP-receptor antagonists were performed by the cumulative addition of drugs in half log units in fully dilated vessels. At each concentration, the effects of the drugs were expressed as % reversal of CGRP-induced relaxation in each vessel. The actual assay and data analysis were performed for each vessel individually, fitting the concentration-response data to a four parameter logistic function by non-linear regression analysis, to estimate the EC50 values.

[4] = molecular target: T2, CGRP receptor (SK-N-MC cell membranes) (Homo sapiens, UniProt O60894+Q16602); assay: CGRP Binding Assay ([125I]-CGRP radioligand binding, SK-N-MC homogenate); details: displacement of [125I]-CGRP, SK-N-MC homogenate; read-out: CGRP binding IC50
T2 construct: endogenous in cells; host or cells: SK-N-MC cells (membrane homogenate)
T2 sequence (Q16602 23-461): as the sequence (Q16602 23-461) above
T2 sequence (O60894 27-148): as the sequence (O60894 27-148) above

[5] = molecular target: T1, human CGRP receptor (SK-N-MC cells); assay: Cyclic AMP Assay, functional antagonism of CGRP-induced cyclic AMP formation; assay type: cell-based
Summary of the method: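 SK-N-MC cells, which endogenously express human CGRP receptor, stimulated with 0.3 nM CGRP with or without compound for 30 min at room temperature. Cellular cAMP extracted by lysis and quantified by SPA radioimmunoassay; IC50 from inhibition of CGRP-induced cAMP.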

[6] = Schild analysis, dissociation constant of the antagonist, read-out: Kb
[7] = SK-N-MC cells, 0.3 nM CGRP, read-out: cAMP Function IC50

Molecule: hαCGRP(8-37): "the peptide antagonist hαCGRP(8-37)" [reference compound]
- % Inhibition of CGRP-induced increase in laser Doppler facial blood flow [1]: Z (Z>75%)
- inhibition of CGRP-induced increase in laser Doppler facial blood flow (in words) ([1]; delivered prior to hαCGRP (pre-treatment)): dose-dependently inhibited

Molecule: O=C(NC(Cc1cc(Cl)c2[nH]ncc2c1)C(=O)N1CCC(N2CCCCC2)CC1)N1CCC(N2Cc3ccccc3NC2=O)CC1 (racemic) [Example 43, (±)-4-(2-Oxo-1,4-dihydro-2H-quinazolin-3-yl)-piperidine-1-carboxylic acid[2-[1,4′]bipiperidinyl-1′-yl-1-(7-chloro-1H-indazol-5-ylmethyl)-2-oxo-ethyl]-amide]
- Kb [2, 6]: 0.018 nM
- slope [2]: 1.2
- EC50 [3]: < 10 nM
- IC50 [4]: < 10 nM
- IC50 [5, 7]: < 10 nM

Molecule: Cc1cc(CC(NC(=O)N2CCC(N3Cc4ccccc4NC3=O)CC2)C(=O)N(C)C)cc2cn[nH]c12 (racemic) [Example 18, (±)-4-(2-Oxo-1,4-dihydro-2H-quinazolin-3-yl)-piperidine-1-carboxylic acid[1-dimethylcarbamoyl-2-(7-methyl-1H-indazol-5-yl)-ethyl]-amide]
- Kb [2, 6]: 1 nM
- slope [2]: 0.8
- EC50 [3]: < 10 nM
- IC50 [4]: < 10 nM
- IC50 [5, 7]: 10 to 100 nM

Molecule: O=C(NC(Cc1ccc2[nH]ccc2c1)C(=O)N1CCC(N2CCCCC2)CC1)N1CCC(n2c(=O)[nH]c3ccccc32)CC1 (racemic) [Example 3, (±)-4-(2-Oxo-2,3-dihydro-benzoimidazol-1-yl)-piperidine-1-carboxylic acid[2-[1,4′]bipiperidinyl-1′-yl-1-(1H-indol-5-ylmethyl)-2-oxo-ethyl]-amide]
- Kb [2, 6]: 55 nM
- slope [2]: 0.96
- EC50 [3]: 10 to 100 nM
- IC50 [4]: 10 to 100 nM
- IC50 [5, 7]: 10 to 100 nM

Molecule: O=C(NC(Cc1ccc2[nH]ncc2c1)C(=O)N1CCC(N2CCCCC2)CC1)N1CCC(N2Cc3ccccc3NC2=O)CC1 (racemic) [Example 6, (±)-4-(2-Oxo-1,4-dihydro-2H-quinazolin-3-yl)-piperidine-1-carboxylic acid[2-[1,4′]bipiperidinyl-1′-yl-1-(1H-indazol-5-ylmethyl)-2-oxo-ethyl]-amide]
- slope [2]: 0.93
- EC50 [3]: < 10 nM
- % Inhibition of CGRP-induced increase in laser Doppler facial blood flow [1]: Z (Z>75%)

Molecule: Cc1cc(CC(NC(=O)N2CCC(N3Cc4ccccc4NC3=O)CC2)C(=O)N2CCN(c3ccncc3)CC2)cc2cn[nH]c12 (racemic) [Example 21, (±)-4-(2-Oxo-1,4-dihydro-2H-quinazolin-3-yl)-piperidine-1-carboxylic acid[1-(7-methyl-1H-indazol-5-ylmethyl)-2-oxo-2-(4-pyridin-4-yl-piperazin-1-yl)-ethyl]-amide]
- Kb [2, 6]: 0.018 nM
- slope [2]: 0.89
- EC50 [3]: < 10 nM
- IC50 [4]: < 10 nM
- IC50 [5, 7]: < 10 nM

Molecule: Cc1cc(CC(CC(=O)N2CCC3(CC2)OC(=O)Nc2ccccc23)C(=O)N2CCC3(CC2)OCCO3)cc2cn[nH]c12 (racemic) [Example 71, (±)-1-(1,4-Dioxa-8-aza-spiro[4.5]dec-8-yl)-2-(7-methyl-1H-indazol-5-ylmethyl)-4-[1′,2′-dihydro-2′-oxospiro-[4H-3′,1-benzoxazine-4,4′-piperidinyl]-butane-1,4-dione]
- Kb [2]: 2 nM
- slope [2]: 0.87
- EC50 [3]: < 10 nM
- IC50 [4]: < 10 nM
- IC50 [5]: < 10 nM

Molecule: Cc1cc(CC(NC(=O)N2CCC(N3Cc4ccccc4NC3=O)CC2)C(=O)N2CCCCC2)cc2cn[nH]c12 (racemic) [Example 17, (±)-4-(2-Oxo-1,4-dihydro-2H-quinazolin-3-yl)-piperidine-1-carboxylic acid[1-(7-methyl-1H-indazol-5-ylmethyl)-2-oxo-2-piperidin-1-yl-ethyl]-amide]
- Kb [2, 6]: 1.1 nM
- slope [2]: 0.92
- EC50 [3]: < 10 nM
- IC50 [4]: < 10 nM
- IC50 [5, 7]: < 10 nM

Molecule: O=C(N[C@H](Cc1ccc2[nH]c(=O)oc2c1)C(=O)N1CCC(N2CCCCC2)CC1)N1CCC(N2Cc3ccccc3NC2=O)CC1 [Example 47, (R)-4-(2-Oxo-1,4-dihydro-2H-quinazolin-3-yl)-piperidine-1-carboxylic acid[2-[1,4′]bipiperidinyl-1′-yl-2-oxo-1-(2-oxo-2,3-dihydro-benzooxazol-6-ylmethyl)-ethyl]-amide]
- Kb [2, 6]: 0.1 nM
- slope [2]: 0.93
- EC50 [3]: < 10 nM
- IC50 [4]: < 10 nM
- IC50 [5, 7]: < 10 nM
